These results are taken from US20260365692A1, “COMPOSITIONS COMPRISING PROTEINS DISSOLVED IN FLUORINATED SOLVENTS, AND METHODS OF MAKING AND USING THE SAME” (priority 2022, published 2026).

Data set [1] in a line: Protein activity after elevated temperature exposure (Example 4). It is filed as physicochemical. The procedure: A group of enzyme proteins, β-Gal and Trypsin was chosen for this study. β-Gal and Trypsin were diluted in PBS or dispersed in PFOc at 1 μM and 10 μM, respectively. Next, a subset of samples was subjected to elevated temperature condition (90 °C) well beyond their native denaturation temperature for 30 minutes. After that, samples were allowed to cool down to room temperature before retrieval. For PFOc samples, proteins were extracted into PBS before performing the ensuing assays. To determine the enzymatic activity, an equal volume of protein samples was added to their substrates dissolved in PBS (4 mg/mL ONPG for β-Gal or 1 mg/mL BAEE for Trypsin). After incubation, ONPG and BAEE substrate conversions were measured by taking absorbance using a microplate reader at 420 nm or 400 nm, respectively. In case of intrinsic fluorescence, GFP was similarly prepared, and heat treated. After GFP samples were retrieved, fluorescent intensity was taken at λex=490 nm, λem=520 nm. The change in protein activity was presented by normalizing to spectrometric readings of each protein dissolved in PBS without being subjected to heat (room temperature). […] This supports the assertion that the fluorous coating and solvent environments, together, serve to constrain the conformational flexibility of the dispersed protein and, as a result, increase its melting temperature.

In data set [2] the test system is rabbit serum IgG. The data set is described as follows: Circular dichroism with PFNA, rabbit serum IgG. The note with it: 0.001-1 mM PFNA. The text has this: FIGS. 14A-14L depict circular dichroism spectra of Hb (FIG. 14A), GFP (FIG. 14B), BSA (FIG. 14C), β-Gal (FIG. 14D), rabbit serum IgG (FIG. 14E), transferrin (FIG. 14F), and urease (FIG. 14G) in the absence (black line) or presence (dashed lines) of PFNA. Increasing dash sequence indicated higher concentration of PFNA. FIG. 14H: Change in molar ellipticity at 216 nm (Δθ216) of PFNA-treated proteins, relative to native controls, as a function of increasing ligand concentration. FIG. 14I: Percentage change in secondary structural motifs of Hb, β-Gal and IgG between the native protein and 1 mM PFNA treated samples. β-sheet structures were further differentiated into parallel and antiparallel conformations. Hb, β-Gal and IgG were prioritized for analysis based on their significant spectral shift in the presence of 1 mM PFNA. FIGS. 14J-14L: Sensograms for BSA (FIG. 14J), β-gal (FIG. 14K), and IgG (FIG. 14L) showing relative response (R.U.) at 10, 25, 50, 75, and 100 μM.
To explore PFNA-mediated changes in protein structure, dose-response circular dichroism (CD) studies were performed (FIG. 14A-14G). […] Remarkably, these structural changes endured even at sub-stoichiometric PFNA:protein ratios (see 0.001 mM PFNA in […]; protein concentration was constant at 0.01 mM).
For orientation: Circular dichroism is the unequal absorption of left and right circularly polarised light.

Data set [3] has as its target TFN (Bos taurus, UniProt Q29443). Briefly: 19F NMR of PFNA with TFN. The data set is classed as binding, bovine. The text has this: This further supported the conclusion that, like TFE, adsorption of PFNA to protein surfaces aligned the fluorinated tail parallel to the solvent accessible exterior, with further stabilization via F . . . H bonding with surface N—H groups (FIG. 12, FIGS. 12A-12E, and FIG. 13). This ultimately generated the fluorine rich coating that altered water accessibility and promoted secondary structure.

The subject of data set [4] is A549 cells. The data set is described as follows: Protein uptake in A549 cells, GFP. Particulars: PFNA, 24-hour exposure. The data set is classed as cell-based, human. The procedure:
FIGS. 17A-17B depict the uptake of GFP in human lung A549 cells after 2 and 24 hours of incubation in the absence/presence of PFNA. Results are shown in relative fluorescence units (RFU).
(§1) Multiplexed in vitro assays were employed to probe the influence of PFNA interactions on protein uptake and transport in cells. A549 and PC9 human lung cells were prioritized for these assays given that pulmonary tissue is a primary site of perfluoroalkyl bioaccumulation in humans (Reference: 63). Before initiating experiments, cellular toxicity assays established a maximum tolerated dose of PFNA to avoid confounding protein transport experiments with substantive cell death. Protein uptake was then studied using green fluorescent protein (GFP) and bovine serum albumin (BSACy5) as model biologics that employ non-specific pinocytic mechanisms for cellular entry.

In data set [5] the test system is A549 cells. Briefly: Protein uptake in A549 cells, Cy5-labeled BSA. The data set is classed as cell-based, human. Particulars: PFNA. The procedure: FIGS. 18A-18B depict the uptake of Cy5-labeled BSA in human lung A549 cells after 2 and 24 hours of incubation in the absence/presence of PFNA. Results are shown in relative fluorescence units (RFU).
as §1

The target of data set [6] is BSA (Bos taurus, UniProt P02769). The data set is described as follows: FTIR of BSA eluted from PFOc into PBS. On the set-up: species or system bovine. The note with it: dispersed BSA extracted from PFOc into PBS. The procedure:
FIG. 47 depicts stacked FTIR spectra of PD-7, BSA and the PD-7:BSA complex after elution into PBS.
To test this assertion, Fourier transform infrared (FTIR) spectroscopy was performed on BSA samples following extraction of the PD-7 dispersed protein from PFOc into a physiologic buffer. Selected model protein BSA was diluted to […], and PFNA was diluted to 2 mM in PBS. The intermolecular interactions were initiated by adding an equal amount of BSA and PFNA samples into a centrifuge tube. After 1-hour incubation, samples were frozen at −80 °C, and lyophilize overnight to remove water. FTIR spectrometry was then performed on powdered samples using LN-MCT detector (4000-800 cm-1, backward output). Data is represented by average+−SD of wavenumber among replicates depicting corresponding characteristic bonds. An equal volume of PBS was added to the BSA:PD-7 sample in PFOc, and vortexing the phase separated mixture for ~2 seconds.

Data set [7] relates to cells. The data set is described as follows: Cellular uptake of PFNA-complexed proteins. The data set is classed as cell-based.
Source text: as §1

Sequence of BSA (P02769 25-607): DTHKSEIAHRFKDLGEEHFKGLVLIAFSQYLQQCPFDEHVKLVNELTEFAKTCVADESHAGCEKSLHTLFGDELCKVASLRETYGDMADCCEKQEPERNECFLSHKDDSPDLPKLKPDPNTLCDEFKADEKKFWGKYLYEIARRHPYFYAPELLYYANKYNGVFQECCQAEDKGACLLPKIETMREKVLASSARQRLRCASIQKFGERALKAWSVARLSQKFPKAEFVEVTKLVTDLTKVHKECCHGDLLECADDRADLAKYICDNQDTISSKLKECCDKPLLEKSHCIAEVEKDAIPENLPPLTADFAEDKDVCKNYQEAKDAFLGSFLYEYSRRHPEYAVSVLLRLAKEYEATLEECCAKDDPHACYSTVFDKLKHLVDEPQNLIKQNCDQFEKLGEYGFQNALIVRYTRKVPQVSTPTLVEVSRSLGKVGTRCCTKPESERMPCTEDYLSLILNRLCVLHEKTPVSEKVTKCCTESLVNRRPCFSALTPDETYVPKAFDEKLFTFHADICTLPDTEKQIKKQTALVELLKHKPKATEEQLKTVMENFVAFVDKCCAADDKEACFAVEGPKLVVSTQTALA
Sequence of TFN (Q29443 20-704): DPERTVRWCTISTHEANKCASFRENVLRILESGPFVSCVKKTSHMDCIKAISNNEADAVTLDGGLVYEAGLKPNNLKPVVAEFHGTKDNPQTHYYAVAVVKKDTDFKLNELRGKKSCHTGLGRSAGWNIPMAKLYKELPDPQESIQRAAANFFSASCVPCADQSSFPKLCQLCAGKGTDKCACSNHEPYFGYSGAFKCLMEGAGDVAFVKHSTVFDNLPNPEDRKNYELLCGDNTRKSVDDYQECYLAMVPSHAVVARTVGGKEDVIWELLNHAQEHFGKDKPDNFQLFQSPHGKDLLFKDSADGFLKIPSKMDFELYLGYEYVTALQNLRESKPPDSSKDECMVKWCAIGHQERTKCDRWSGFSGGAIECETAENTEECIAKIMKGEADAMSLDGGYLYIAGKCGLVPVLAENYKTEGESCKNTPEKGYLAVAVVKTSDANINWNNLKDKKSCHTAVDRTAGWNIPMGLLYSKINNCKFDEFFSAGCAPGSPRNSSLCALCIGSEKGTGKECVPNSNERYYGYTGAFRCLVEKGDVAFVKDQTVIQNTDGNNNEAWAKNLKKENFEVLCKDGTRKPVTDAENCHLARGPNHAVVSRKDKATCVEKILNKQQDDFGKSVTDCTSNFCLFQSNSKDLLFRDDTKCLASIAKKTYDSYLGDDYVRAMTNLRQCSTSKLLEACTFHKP

For “β-Gal: β-Galactosidase (β-Gal), dissolved in PBS/saline or dispersed in PFOc”, the “change in activity after heating” value in data set [1] (PFOc dispersed, 90 °C for 30 minutes) is “no statistically significant change in activity”. In addition, in data set [1] (saline, 90 °C for 30 minutes), the “loss of bioactivity after heating” value is reported as > 90%.
Take `O=C(O)C(F)(F)C(F)(F)C(F)(F)C(F)(F)C(F)(F)C(F)(F)C(F)(F)C(F)(F)F` [Compound 7, perfluoronanonic acid]: the “CD structural change, rabbit serum IgG” value in data set [2] is reported as “marked increase in β-sheet content”. In data set [3], the “19F NMR peak change upon interaction” value was “broadening of PFNA's peaks”. Moreover, the “uptake of GFP” value in data set [4] was “nominal increase in uptake”. Also, the BSA internalization result in data set [5] was “less affected”. Further, the “retention of bioactivity / function at elevated temperature” value in data set [1] (proteins dispersed into fluorous solvent using the dispersant, up to 90 °C) was “structured and functional at temperatures as high as 90 °C”. Moreover, the “dispersant spectral feature after extraction into physiologic buffer/PBS” value in data set [6] is “showed the presence of C—F stretching vibrations (1500-1000 cm-1)”. For the same molecule, the “cellular uptake of complexed proteins” value in data set [7] is “significantly enhanced”.
